The source of these data is patent publication US20130172384A1, “FATTY ACID SYNTHASE INHIBITORS” (GlaxoSmithKline Intellectual Property Development Limited, priority 2010, published 2013).

Chain of FAS (P49327 whole entry): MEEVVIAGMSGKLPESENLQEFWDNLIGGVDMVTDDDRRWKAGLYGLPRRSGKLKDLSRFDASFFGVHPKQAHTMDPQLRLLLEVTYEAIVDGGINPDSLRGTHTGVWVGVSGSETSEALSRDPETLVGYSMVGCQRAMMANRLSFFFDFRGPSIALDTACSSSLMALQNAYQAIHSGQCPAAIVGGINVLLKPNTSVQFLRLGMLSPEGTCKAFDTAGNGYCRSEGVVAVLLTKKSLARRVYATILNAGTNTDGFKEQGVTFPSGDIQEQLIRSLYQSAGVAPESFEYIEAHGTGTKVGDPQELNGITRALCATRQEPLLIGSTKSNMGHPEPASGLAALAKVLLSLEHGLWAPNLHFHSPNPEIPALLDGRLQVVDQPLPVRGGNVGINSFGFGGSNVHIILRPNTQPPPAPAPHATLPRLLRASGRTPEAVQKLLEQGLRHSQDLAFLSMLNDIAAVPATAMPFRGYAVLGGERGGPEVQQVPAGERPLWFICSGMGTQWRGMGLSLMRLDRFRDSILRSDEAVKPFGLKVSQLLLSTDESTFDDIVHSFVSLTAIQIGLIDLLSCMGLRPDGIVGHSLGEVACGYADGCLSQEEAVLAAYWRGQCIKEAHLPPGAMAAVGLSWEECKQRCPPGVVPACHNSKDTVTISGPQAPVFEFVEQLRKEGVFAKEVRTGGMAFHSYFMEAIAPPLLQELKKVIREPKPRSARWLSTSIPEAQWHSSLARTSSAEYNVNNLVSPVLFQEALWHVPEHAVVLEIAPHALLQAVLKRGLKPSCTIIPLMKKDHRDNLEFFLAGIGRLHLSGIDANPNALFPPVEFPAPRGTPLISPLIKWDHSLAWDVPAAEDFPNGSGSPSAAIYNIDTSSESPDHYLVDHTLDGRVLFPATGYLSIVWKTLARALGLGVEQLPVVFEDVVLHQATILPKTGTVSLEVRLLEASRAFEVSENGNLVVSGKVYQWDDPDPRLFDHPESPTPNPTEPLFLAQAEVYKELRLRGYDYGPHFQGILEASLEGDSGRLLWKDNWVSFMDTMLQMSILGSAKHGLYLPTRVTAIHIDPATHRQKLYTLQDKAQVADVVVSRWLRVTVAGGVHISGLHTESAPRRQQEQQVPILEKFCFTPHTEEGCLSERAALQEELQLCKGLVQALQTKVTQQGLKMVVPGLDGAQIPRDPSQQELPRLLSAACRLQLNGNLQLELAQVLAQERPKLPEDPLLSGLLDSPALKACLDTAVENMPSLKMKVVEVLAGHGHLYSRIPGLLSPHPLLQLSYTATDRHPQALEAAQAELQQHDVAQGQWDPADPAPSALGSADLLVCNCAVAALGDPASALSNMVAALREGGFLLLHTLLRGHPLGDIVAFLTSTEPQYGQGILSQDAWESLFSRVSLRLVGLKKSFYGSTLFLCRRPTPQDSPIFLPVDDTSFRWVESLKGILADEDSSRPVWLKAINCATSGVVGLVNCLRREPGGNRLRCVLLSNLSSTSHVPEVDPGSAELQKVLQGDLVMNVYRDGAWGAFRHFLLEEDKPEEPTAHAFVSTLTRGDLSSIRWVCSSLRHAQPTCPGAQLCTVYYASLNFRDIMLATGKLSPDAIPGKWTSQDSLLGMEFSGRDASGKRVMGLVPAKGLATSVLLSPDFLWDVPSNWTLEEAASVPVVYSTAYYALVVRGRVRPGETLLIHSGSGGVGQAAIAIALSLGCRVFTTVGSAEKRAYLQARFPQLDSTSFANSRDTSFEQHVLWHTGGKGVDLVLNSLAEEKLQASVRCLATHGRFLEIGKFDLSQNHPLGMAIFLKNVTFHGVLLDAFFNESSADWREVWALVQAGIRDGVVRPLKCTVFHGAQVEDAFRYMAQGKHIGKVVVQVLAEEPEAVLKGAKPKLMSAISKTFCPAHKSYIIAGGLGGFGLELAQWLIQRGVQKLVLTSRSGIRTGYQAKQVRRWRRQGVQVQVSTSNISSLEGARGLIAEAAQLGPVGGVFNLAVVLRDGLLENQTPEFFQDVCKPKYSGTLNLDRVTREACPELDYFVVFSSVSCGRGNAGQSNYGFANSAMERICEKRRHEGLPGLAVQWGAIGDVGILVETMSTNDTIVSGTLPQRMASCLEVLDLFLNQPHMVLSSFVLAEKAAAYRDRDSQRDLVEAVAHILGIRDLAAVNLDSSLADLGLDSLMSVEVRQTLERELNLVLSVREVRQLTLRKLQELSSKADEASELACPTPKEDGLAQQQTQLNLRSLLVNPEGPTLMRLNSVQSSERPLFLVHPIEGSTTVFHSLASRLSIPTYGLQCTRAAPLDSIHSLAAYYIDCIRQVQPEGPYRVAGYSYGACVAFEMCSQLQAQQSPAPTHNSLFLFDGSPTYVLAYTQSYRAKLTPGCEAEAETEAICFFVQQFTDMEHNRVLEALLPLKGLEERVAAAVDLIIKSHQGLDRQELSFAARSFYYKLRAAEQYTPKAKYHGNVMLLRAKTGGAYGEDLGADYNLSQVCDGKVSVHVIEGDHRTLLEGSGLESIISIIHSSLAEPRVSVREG

This assay concerns the target FAS (Homo sapiens, UniProt P49327). Kind of assay: FAS assay (Assay #1 residual NADPH detection or Assay #2 CoA detection with CPM dye). The settings on record: inhibition of FAS; measured by one of two assays; one experiment or average of multiple experiments. In kind it is biochemical. The procedure:
FAS activity was measured through one of the two following assays.
Inhibition of FAS activity can be measured based on the detection of residual NADPH substrate after the FAS assay is quenched. This assay is run as a 10 μL endpoint assay in 384-well format, where the reaction contains 20 μM malonyl-CoA, 2 μM acetyl-CoA, 30 μM NADPH and 40 nM FAS in 50 mM sodium phosphate, pH 7.0. The assay is run by sequentially dispensing 5 μl of a malonyl-CoA solution, then enzyme solution (containing the acetyl-CoA, and NADPH) into a black, low volume assay plate (Greiner 784076) pre-dispensed with 100 nL compound solutions in DMSO. The reaction is incubated at ambient temperature for 60 minutes, then quenched with 5 μL of a developing solution composed of 90 μM resazurin, 0.3 IU/ml diaphorase in 50 mM sodium phosphate, pH 7.0. The developed reaction is read on a Molecular Devices Analyst or Acquest (or equivalent) plate reader using a 530 nm excitation wavelength filter, a 580 nm emission filter, and 561 nm dichroic filter. The test compounds are prepared in neat DMSO at a concentration of 10 mM. For inhibition curves, compounds are diluted using a three fold serial dilution and tested at 11 concentrations (e.g. 25 μM-0.42 nM). Curves are analysed using ActivityBase and XLfit, and results are expressed as pIC50 values.
Inhibition of FAS can also be quantified based on the detection of the CoA products with a thio-reactive coumarin dye. This assay is run as a 10 μL endpoint assay in 384-well format, where the reaction contains 20 μM malonyl-CoA, 20 μM acetyl-CoA, 40 μM NADPH and 2 nM FAS in 50 mM sodium phosphate, pH 7.0, and 0.04% Tween-20. The assay is run by adding 5 μL enzyme solution to a black, low volume assay plate (Greiner 784076) pre-dispensed with 100 nl compound solutions in DMSO. After 30 minutes, 5 μL substrate is added, and the reaction incubated at ambient temperature for an additional 60 minutes. The reaction is then quenched with 10 μL of 6M guanidine-HCl containing 50 μM CPM (7-diethylamino-3-(4′-maleimidylphenyl)-4-methylcoumarin (CPM; thio-reactive dye), and incubated for 30 minutes. The plate is read on an Envision (PerkinElmer) or equivalent plate reader using a 380 nm excitation wavelength filter, and a 486 nm emission filter. Data fitting and compound preparations are done as described above.
In the case of `Cn1nc(-c2ccc(-c3ccc4occc4c3)c(F)c2)n(C[C@@H]2CCN(C(=O)C3CC3)C2)c1=O` [Example 2, 5-[4-(1-benzofuran-5-yl)-3-fluorophenyl]-4-{[(3R)-1-(cyclopropylcarbonyl)-3-pyrrolidinyl]methyl}-2-methyl-2,4-dihydro-3H-1,2,4-triazol-3-one], half-maximal inhibition (IC50) required 158 nM.

In turn, `O=C(C1CC1)N1CC[C@@H](Cn2c(-c3ccc(-c4ccc5cc[nH]c5c4)c(F)c3)n[nH]c2=O)C1` [Example 4, 4-{[(3R)-1-(cyclopropylcarbonyl)-3-pyrrolidinyl]methyl}-5-[3-fluoro-4-(1H-indol-6-yl)phenyl]-2,4-dihydro-3H-1,2,4-triazol-3-one] returned an IC50 of 25 nM. Turning to `O=C(C1CC1)N1CC[C@@H](Cn2c(-c3ccc(-c4ccc(F)cc4)cc3Cl)n[nH]c2=O)C1` [Example 20, 5-(3-chloro-4′-fluoro-4-biphenylyl)-4-{[(3R)-1-(cyclopropylcarbonyl)-3-pyrrolidinyl]methyl}-2,4-dihydro-3H-1,2,4-triazol-3-one], half-maximal inhibition (IC50) was put at 40 nM. Turning to `O=C(C1CC1)N1CC[C@@H](Cn2c(-c3ccc(-c4ccc5cc[nH]c5c4)cc3)n[nH]c2=O)C1` [Example 21, 4-{[(3R)-1-(cyclopropylcarbonyl)-3-pyrrolidinyl]methyl}-5-[4-(1H-indol-6-yl)phenyl]-2,4-dihydro-3H-1,2,4-triazol-3-one], half-maximal inhibition (IC50) was put at 4 nM. The value for `COc1ccc(-c2ccc(-c3nn(C)c(=O)n3C[C@@H]3CCN(C(=O)C4CC4)C3)cc2)c(Cl)c1` [Example 35, 5-[2′-chloro-4′-(methyloxy)-4-biphenylyl]-4-{[(3R)-1-(cyclopropylcarbonyl)-3-pyrrolidinyl]methyl}-2-methyl-2,4-dihydro-3H-1,2,4-triazol-3-one] was 79 nM. The value for `O=C(C1CC1)N1CC[C@@H](Cn2c(-c3ccc(-c4ccc(F)cc4)cc3)nn(Cc3ccccc3)c2=O)C1` [Example 42, 4-{[(3R)-1-(cyclopropylcarbonyl)-3-pyrrolidinyl]methyl}-5-(4′-fluoro-4-biphenylyl)-2-(phenylmethyl)-2,4-dihydro-3H-1,2,4-triazol-3-one] was 263 nM; that for `O=C(C1CC1)N1CC[C@@H](Cn2c(-c3ccc(-c4ccc(Cl)cc4)cc3F)n[nH]c2=O)C1` [Example 47, 5-(4′-chloro-3-fluoro-4-biphenylyl)-4-{[(3R)-1-(cyclopropylcarbonyl)-3-pyrrolidinyl]methyl}-2,4-dihydro-3H-1,2,4-triazol-3-one] was 16 nM. The result for `CN(C)S(=O)(=O)Nc1cccc(-c2ccc(-c3n[nH]c(=O)n3C[C@@H]3CCN(C(=O)C4CC4)C3)cc2)c1` [Example 49, N′-[4′-(4-{[(3R)-1-(cyclopropylcarbonyl)-3-pyrrolidinyl]methyl}-5-oxo-4,5-dihydro-1H-1,2,4-triazol-3-yl)-3-biphenylyl]-N,N-dimethylsulfamide] reads 40 nM. Regarding `O=C(C1CC1)N1CC[C@@H](Cn2c(-c3ccc(-c4ccc(F)nc4)cc3)n[nH]c2=O)C1` [Example 58, 4-{[(3R)-1-(cyclopropylcarbonyl)-3-pyrrolidinyl]methyl}-5-[4-(6-fluoro-3-pyridinyl)phenyl]-2,4-dihydro-3H-1,2,4-triazol-3-one], the IC50 came to 2000 nM. The value for `N#Cc1ccc(-c2ccc(-c3n[nH]c(=O)n3C[C@@H]3CCN(C(=O)C4CC4)C3)cc2)cc1` [Example 66, 4′-(4-{[(3R)-1-(cyclopropylcarbonyl)-3-pyrrolidinyl]methyl}-5-oxo-4,5-dihydro-1H-1,2,4-triazol-3-yl)-4-biphenylcarbonitrile] was 79 nM; that for `O=C(C1CC1)N1CC[C@@H](Cn2c(-c3ccc(-c4cccc5ncccc45)cc3)n[nH]c2=O)C1` [Example 71, 4-{[(3R)-1-(cyclopropylcarbonyl)-3-pyrrolidinyl]methyl}-5-[4-(5-quinolinyl)phenyl]-2,4-dihydro-3H-1,2,4-triazol-3-one] was 20 nM; that for `O=C(C1CC1)N1CC[C@@H](Cn2c(-c3ccc(-c4cn5ccccc5n4)cc3)n[nH]c2=O)C1` [Example 78, 4-{[(3R)-1-(cyclopropylcarbonyl)-3-pyrrolidinyl]methyl}-5-(4-imidazo[1,2-a]pyridin-2-ylphenyl)-2,4-dihydro-3H-1,2,4-triazol-3-one] was 398 nM.

`O=C(C1CC1)N1CC[C@@H](Cn2c(-c3ccc(-c4ccn5ccnc5c4)cc3)n[nH]c2=O)C1` [Example 79, 4-{[(3R)-1-(cyclopropylcarbonyl)-3-pyrrolidinyl]methyl}-5-(4-imidazo[1,2-a]pyridin-7-ylphenyl)-2,4-dihydro-3H-1,2,4-triazol-3-one] returned an IC50 of 100 nM. The result for `CC(C)C(=O)N1CC[C@@H](Cn2c(-c3ccc(-c4ccc5occc5c4)cc3)n[nH]c2=O)C1` [Example 91, 5-[4-(1-benzofuran-5-yl)phenyl]-4-{[(3R)-1-(2-methylpropanoyl)-3-pyrrolidinyl]methyl}-2,4-dihydro-3H-1,2,4-triazol-3-one] reads 16 nM; that for `CN(C)C(=O)N1CC[C@@H](Cn2c(-c3ccc(-c4ccc5occc5c4)cc3)n[nH]c2=O)C1` [Example 92, (3R)-3-({3-[4-(1-benzofuran-5-yl)phenyl]-5-oxo-1,5-dihydro-4H-1,2,4-triazol-4-yl}methyl)-N,N-dimethyl-1-pyrrolidinecarboxamide], 25 nM; that for `CC1(C(=O)N2CC[C@@H](Cn3c(-c4ccc(-c5ccc6occc6c5)cc4)n[nH]c3=O)C2)CC1` [Example 97, 5-[4-(1-benzofuran-5-yl)phenyl]-4-({(3R)-1-[(1-methylcyclopropyl)carbonyl]-3-pyrrolidinyl}methyl)-2,4-dihydro-3H-1,2,4-triazol-3-one], 4 nM. The result for `NC(=O)Nc1cccc(-c2ccc(-c3n[nH]c(=O)n3C[C@@H]3CCN(C(=O)C4CC4)C3)cc2)c1` [Example 103, N-[4′-(4-{[(3R)-1-(cyclopropylcarbonyl)-3-pyrrolidinyl]methyl}-5-oxo-4,5-dihydro-1H-1,2,4-triazol-3-yl)-3-biphenylyl]urea] reads 316 nM; that for `O=C(C1CC1)N1CC[C@@H](Cn2c(-c3ccc(-c4ccc(Cl)cc4F)cc3)n[nH]c2=O)C1` [Example 105], 50 nM. The value for `COc1ccc(-c2ccc(-c3n[nH]c(=S)n3C[C@@H]3CCN(C(=O)C4CC4)C3)cc2)c(Cl)c1` [Example 107, 5-[2′-chloro-4′-(methyloxy)-4-biphenylyl]-4-{[(3R)-1-(cyclopropylcarbonyl)-3-pyrrolidinyl]methyl}-2,4-dihydro-3H-1,2,4-triazole-3-thione] was 72 nM.

The IC50 is the concentration that gives 50% inhibition. A low value points to higher potency.
